We go through 1 molecule from patent publication US4282375A, “Halogenated-naphthalenetriyltris(sulfonylimino)-aryl multicarboxylic acids and salts thereof” (priority 1979, dated 1981).

Like-named read-outs stand apart in the source and are kept apart here.

In one assay the target is activated human C1 (Homo sapiens, UniProt P09871). Nature of the assay: Test Code 026 (C1 inhibitor). The assay is classed as biochemical. The note with it: serial twofold dilution assay; higher well number indicates higher activity. An excerpt:
(§1) An active inhibitor protects C2 from C1 and C4; (ii) Test Code 035 (C3-C9 inhibitor)--This test determines the ability of the late components of human complement (C3-C9) to lyse EAC 142 in the presence of approriate dilutions of the test compound. An active inhibitor protects EAC 142 from lysis by human C3-C9; (iii) Test Code 036 (C-Shunt inhibitor)--In this test human erythrocytes rendered fragile are lysed in autologous serum via the shunt pathway activated by cobra venom factor in the presence of appropriate dilutions of the test compound. Inhibition of the shunt pathway results in failure of lysis; (iv) Forssman Vasculitis Test--Here, the well known complement dependent lesion, Forssman vasculitis, is produced in guinea pigs by intradermal injection of rabbit anti-Forssman antiserum. […] Percent inhibition is calculated by comparison with simultaneous controls. […]

Assay [1] concerns late components of human complement (C3-C9). Nature of the assay: Test Code 035 (C3-C9 inhibitor), lysis of EAC 142. The assay is classed as biochemical. To be noted: serial twofold dilution assay; higher well number indicates higher activity.
Source text: as §1

In the next assay the test system is shunt pathway. Nature of the assay: Test Code 036 (C-Shunt inhibitor), lysis of fragile human erythrocytes in autologous serum, cobra venom factor activated. The class given is cell-based. To be noted: serial twofold dilution assay; higher well number indicates higher activity.
Source text: as §1

Assay [2] relates to complement activity of serum. Nature of the assay: Guinea Pig Intraperitoneal Test (GPIP), serum complement activity. The note with it: Cavia porcellus, ip, 200 mg./kg. i.p. The class given is in vivo. The text has this: An active inhibitor protects C2 from C1 and C4; (ii) Test Code 035 (C3-C9 inhibitor)--This test determines the ability of the late components of human complement (C3-C9) to lyse EAC 142 in the presence of approriate dilutions of the test compound. An active inhibitor protects EAC 142 from lysis by human C3-C9; (iii) Test Code 036 (C-Shunt inhibitor)--In this test human erythrocytes rendered fragile are lysed in autologous serum via the shunt pathway activated by cobra venom factor in the presence of appropriate dilutions of the test compound. Inhibition of the shunt pathway results in failure of lysis; (iv) Forssman Vasculitis Test--Here, the well known complement dependent lesion, Forssman vasculitis, is produced in guinea pigs by intradermal injection of rabbit anti-Forssman antiserum. The lesion is measured in terms of diameter, edema and hemorrhage and the extent to which a combined index of these is inhibited by prior intraperitoneal injection of the test compound at 200 mg./kg. is then reported, unless otherwise stated; (v) Forssman Shock Test--Lethal shock is produced in guinea pigs by an i.v. injection of anti-Forssman antiserum and the haromic mean death time of treated guinea pigs is compared with that of simultaneous controls; (vi) Complement Level Reduction Test--In this test, the above dosed guinea pigs, or others, are bled for serum and the complement level is determined in undiluted serum by the capillary tube method of U.S. Pat. No. 3,876,376 and compared to undosed control guinea pigs; (vii) Cap 50 Test--Here, appropriate amounts of the test compound are added to a pool of guinea pig serum in vitro, after which the undiluted serum capillary tube assay referred to above is run. The concentration of compound inhibiting 50% is reported; (viii) Guinea Pig Intraperitoneal Test (GPIP)--Guinea Pigs weighing about 300 g. are dosed intraperitoneally (i.p.) with 200 mg./kg. of the test compound dissolved in saline and adjusted to pH 7-8. […] Percent inhibition is calculated by comparison with simultaneous controls. […]

`O=C([O-])c1cc(NS(=O)(=O)c2cc(S(=O)(=O)Nc3cc(C(=O)[O-])c(C(=O)[O-])c(C(=O)[O-])c3)c3c(Cl)ccc(S(=O)(=O)Nc4cc(C(=O)[O-])c(C(=O)[O-])c(C(=O)[O-])c4)c3c2)cc(C(=O)[O-])c1C(=O)[O-].[Na+].[Na+].[Na+].[Na+].[Na+].[Na+].[Na+].[Na+].[Na+]` [5,5',5"-[(8-chloro-1,3,5-naphthalenetriyl)tris(sulfonylimino)]-tri-1,2,3-benzenetricarboxylic acid, nonasodium salt]: the “Cl 026 Wells” value at activated human C1 is reported as “+7 Wells”. For the same molecule, in assay [1], the “C-Late 035 Wells” value is “+2 Wells”. Further, the “Shunt Inhibition 036 Wells” value in the assay on shunt pathway is given as “+5 Wells”. Besides, the inhibition at 200 mg/kg in assay [2] (0.5 h, blood sample 30 minutes after injection, read-out: In Vivo Activity (Guinea Pig) % Inhibition Intraperitoneal, 30 minutes) was -75%; in assay [2] (1 h, blood sample 60 minutes after injection, read-out: In Vivo Activity (Guinea Pig) % Inhibition Intraperitoneal, 60 minutes), -69%; in assay [2] (2 h, blood sample 120 minutes after injection, read-out: In Vivo Activity (Guinea Pig) % Inhibition Intraperitoneal, 120 minutes), 75%.

As a reminder, the inhibition is the drop in the measured response relative to a control, in per cent.
